Test results as given in ChEMBL document CHEMBL5625161, “Pharmacological activity and mechanism of pyrazines” (Eur J Med Chem, 2023).
Values after ≈ are worked out from the molar mass of the structure shown.

Experiments:
Acetylcholinesterase = Acetylcholinesterase (Homo sapiens, UniProt P22303); assay: Inhibition of AChE (unknown origin)
Cholinesterase = Cholinesterase (Homo sapiens, UniProt P06276); assay: Inhibition of BchE (unknown origin)
BGC-823 = assay: Cytotoxicity against human BGC-823 cells assessed as reduction in cell viability incubated for 24 hrs by MTT assay; assay type: functional, cell-based; details: BGC-823, 24 h
[1] = Antiproliferative activity against mouse […] cells assessed as inhibition of cell growth incubated for 48 hrs by MTT assay; assay type: functional, cell-based
HT-29 = assay: Antiproliferative activity against human HT-29 cells assessed as reduction in cell viability incubated for 24 hrs by MTT assay; assay type: functional, cell-based; details: HT-29, 24 h
HeLa = assay: Antiproliferative activity against human HeLa cells assessed as reduction in cell viability incubated for 24 hrs by MTT assay; assay type: functional, cell-based
PC-3 [2] = assay: Antiproliferative activity against human PC-3 cells assessed as reduction in cell viability incubated for 24 hrs by MTT assay; assay type: functional, cell-based; details: PC-3, 24 h
A549 [3] = assay: Antiproliferative activity against human A549 cells assessed as reduction in cell viability incubated for 48 hrs by SRB assay; assay type: functional, cell-based; details: A549, 48 h
H322 = assay: Antiproliferative activity against human H322 cells assessed as reduction in cell viability incubated for 48 hrs by SRB assay; assay type: functional, cell-based; details: NCI-H322, 48 h
U2OS = assay: Cytotoxicity against human U2OS cells assessed as reduction in cell viability incubated for 48 hrs by MTT assay; assay type: functional, cell-based
MG-63 = assay: Cytotoxicity against human MG-63 cells assessed as reduction in cell viability incubated for 48 hrs by MTT assay; assay type: functional, cell-based; details: MG-63, 48 h
SAOS-2 = assay: Cytotoxicity against human SAOS-2 cells assessed as reduction in cell viability incubated for 48 hrs by MTT assay; assay type: functional, cell-based; details: SAOS-2, 48 h
Rhizoctonia solani = assay: Antifungal activity Rhizoctonia solani assessed as fungal growth inhibition measured after 4 to 8 days; assay type: functional, organism-based
Phytophthora nicotianae = assay: Antifungal activity against Phytophthora nicotianae assessed a fungal growth inhibition measured after 4 to 8 days; assay type: functional, organism-based
ES-2 = assay: Cytotoxicity against human ES2 cells assessed as reduction in cell growth incubated for 72 hrs by CCK-8 assay; assay type: functional, cell-based; details: ES-2, 72 h
Caco-2 = assay: Cytotoxicity against human Caco-2 cells assessed as reduction in cell growth incubated for 72 hrs by CCK-8 assay; assay type: functional, cell-based; details: Caco-2, 72 h
HEY = assay: Cytotoxicity against human HEY cells assessed as reduction in cell growth incubated for 72 hrs by CCK-8 assay; assay type: functional, cell-based
SW626 = assay: Cytotoxicity against human SW626 cells assessed as reduction in cell growth incubated for 72 hrs by CCK-8 assay; assay type: functional, cell-based; details: SW626, 72 h
NCI-H460 = assay: Cytotoxicity against human NCI-H460 cells assessed as reduction in cell growth incubated for 72 hrs by CCK-8 assay; assay type: functional, cell-based; details: NCI-H460, 72 h
OVCAR-5 = assay: Cytotoxicity against human OVCAR-5 cells assessed as reduction in cell growth incubated for 72 hrs by CCK-8 assay; assay type: functional, cell-based; details: OVCAR-5, 72 h
NCI-H1299 = assay: Cytotoxicity against human NCI-H1299 cells assessed as reduction in cell growth incubated for 72 hrs by CCK-8 assay; assay type: functional, cell-based; details: NCI-H1299, 72 h
SK-OV-3 = assay: Cytotoxicity against human SK-OV-3 cells assessed as reduction in cell growth incubated for 72 hrs by CCK-8 assay; assay type: functional, cell-based; details: SK-OV-3, 72 h
A549 [4] = assay: Cytotoxicity against human A549 cells assessed as reduction in cell growth incubated for 72 hrs by CCK-8 assay; assay type: functional, cell-based; details: A549, 72 h
HCT-116 = assay: Antiproliferative activity against human HCT-116 cells assessed reduction in cell growth incubated for 24 hrs by MTT assay; assay type: functional, cell-based; details: HCT-116, 24 h
MDA-MB-231 = assay: Antiproliferative activity against human MDA-MB-231 cells assessed as reduction in cell growth incubated for 48 hrs by MTT assay; assay type: functional, cell-based; details: MDA-MB-231, 48 h
MCF7 = assay: Antiproliferative activity against human MCF7 cells assessed as reduction in cell growth incubated for 48 hrs by MTT assay; assay type: functional, cell-based; details: MCF7, 48 h
[5] = Antiproliferative activity against mouse L929 cells assessed as inhibition of cell growth incubated for 5 days by MTT assay; assay type: toxicity, cell-based
4T1 = assay: Cytotoxicity against mouse 4T1 cells assessed as reduction in cell growth incubated for 48 hrs by MTT assay; assay type: functional, cell-based; details: 4T1, 48 h
HUVEC = assay: Antiproliferative activity against VEGF-stimulated human HUVEC cells assessed as reduction in cell viability incubated for 72 hrs by Cell Counting Kit-8 assay; assay type: functional, cell-based
[6] = target: T1, Fibroblast growth factor receptor 1 (Homo sapiens, UniProt P11362); assay: Inhibition of human recombinant FGFR1 at 10 uM by Enzyme-linked immunosorbent assay relative to control
[7] = target: T1, Fibroblast growth factor receptor 1; assay: Inhibition of human recombinant FGFR1 at 1 uM by Enzyme-linked immunosorbent assay relative to control
Histone deacetylase 1 = Histone deacetylase 1 (Homo sapiens, UniProt Q13547); assay: Inhibition of human recombinant HDAC1
Histone deacetylase 2 = Histone deacetylase 2 (Homo sapiens, UniProt Q92769); assay: Inhibition of human recombinant HDAC2
Histone deacetylase 3 = Histone deacetylase 3 (Homo sapiens, UniProt O15379); assay: Inhibition of human recombinant HDAC3
[8] = Antiproliferative activity against human THLE-2 cells assessed as reduction in cell viability incubated for 48 hrs by CCK-8 assay; assay type: toxicity, cell-based
[9] = Selectivity index, ratio of IC50 for antiproliferative activity against human THLE-2 cells to IC50 for antiproliferative activity against human PC-3 cells
PC-3 [10] = assay: Antiproliferative activity against human PC-3 cells assessed as reduction in cell viability incubated for 48 hrs by CCK-8 assay; assay type: functional, cell-based; details: PC-3, 48 h
Coagulation factor X = Coagulation factor X (Homo sapiens, UniProt P00742); assay: Inhibition of human factor Xa
Coagulation factor X, sequence (P00742 41-179 limits assumed): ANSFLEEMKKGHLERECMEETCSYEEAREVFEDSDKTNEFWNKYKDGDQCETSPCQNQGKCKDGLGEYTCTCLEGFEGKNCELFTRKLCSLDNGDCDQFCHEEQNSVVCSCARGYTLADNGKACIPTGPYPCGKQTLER
Coagulation factor X, sequence (P00742 235-488 limits assumed): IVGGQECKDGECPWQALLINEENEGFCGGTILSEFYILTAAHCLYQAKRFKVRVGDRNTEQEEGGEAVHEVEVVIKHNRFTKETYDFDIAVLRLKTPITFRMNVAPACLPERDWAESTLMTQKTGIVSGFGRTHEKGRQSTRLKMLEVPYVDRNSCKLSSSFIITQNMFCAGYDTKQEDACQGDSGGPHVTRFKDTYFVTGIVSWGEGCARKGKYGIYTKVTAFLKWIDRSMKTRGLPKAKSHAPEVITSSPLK

Cholinesterase, sequence (P06276 whole entry): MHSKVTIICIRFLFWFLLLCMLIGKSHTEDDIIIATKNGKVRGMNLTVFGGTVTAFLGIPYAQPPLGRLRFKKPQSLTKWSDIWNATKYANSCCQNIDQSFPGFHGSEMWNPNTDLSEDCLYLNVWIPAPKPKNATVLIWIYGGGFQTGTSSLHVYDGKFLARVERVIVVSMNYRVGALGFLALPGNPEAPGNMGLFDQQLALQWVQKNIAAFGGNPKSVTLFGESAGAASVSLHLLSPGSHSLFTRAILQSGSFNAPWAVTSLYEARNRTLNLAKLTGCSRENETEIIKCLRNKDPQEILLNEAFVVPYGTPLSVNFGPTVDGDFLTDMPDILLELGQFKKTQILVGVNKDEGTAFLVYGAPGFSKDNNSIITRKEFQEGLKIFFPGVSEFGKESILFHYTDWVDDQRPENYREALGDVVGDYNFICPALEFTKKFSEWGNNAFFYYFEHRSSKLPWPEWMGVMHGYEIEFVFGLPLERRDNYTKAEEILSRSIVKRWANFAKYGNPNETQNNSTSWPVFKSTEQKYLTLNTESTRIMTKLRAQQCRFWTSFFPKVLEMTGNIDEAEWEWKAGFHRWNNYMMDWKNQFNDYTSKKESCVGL
T1 sequence (P11362 22-822 limits assumed): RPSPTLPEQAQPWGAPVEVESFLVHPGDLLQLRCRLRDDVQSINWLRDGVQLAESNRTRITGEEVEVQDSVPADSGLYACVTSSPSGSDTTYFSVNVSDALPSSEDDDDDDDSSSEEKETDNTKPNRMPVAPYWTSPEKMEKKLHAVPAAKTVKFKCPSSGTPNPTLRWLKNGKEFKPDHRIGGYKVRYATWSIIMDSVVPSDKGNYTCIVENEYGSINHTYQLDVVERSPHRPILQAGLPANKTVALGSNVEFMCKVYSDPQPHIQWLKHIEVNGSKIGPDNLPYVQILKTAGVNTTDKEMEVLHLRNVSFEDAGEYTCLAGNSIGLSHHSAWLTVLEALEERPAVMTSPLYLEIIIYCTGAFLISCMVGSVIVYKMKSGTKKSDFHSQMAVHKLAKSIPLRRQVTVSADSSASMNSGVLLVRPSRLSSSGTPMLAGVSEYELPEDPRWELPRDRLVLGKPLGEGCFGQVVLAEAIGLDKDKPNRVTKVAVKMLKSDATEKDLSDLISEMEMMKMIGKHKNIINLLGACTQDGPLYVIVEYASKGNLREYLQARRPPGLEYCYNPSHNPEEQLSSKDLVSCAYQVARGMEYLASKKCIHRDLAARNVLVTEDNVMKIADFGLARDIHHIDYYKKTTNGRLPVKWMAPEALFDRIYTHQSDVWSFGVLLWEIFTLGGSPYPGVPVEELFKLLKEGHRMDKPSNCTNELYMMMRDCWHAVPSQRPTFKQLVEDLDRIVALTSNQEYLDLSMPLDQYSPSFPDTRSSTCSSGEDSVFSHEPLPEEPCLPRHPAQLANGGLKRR
Acetylcholinesterase, sequence (P22303 whole entry): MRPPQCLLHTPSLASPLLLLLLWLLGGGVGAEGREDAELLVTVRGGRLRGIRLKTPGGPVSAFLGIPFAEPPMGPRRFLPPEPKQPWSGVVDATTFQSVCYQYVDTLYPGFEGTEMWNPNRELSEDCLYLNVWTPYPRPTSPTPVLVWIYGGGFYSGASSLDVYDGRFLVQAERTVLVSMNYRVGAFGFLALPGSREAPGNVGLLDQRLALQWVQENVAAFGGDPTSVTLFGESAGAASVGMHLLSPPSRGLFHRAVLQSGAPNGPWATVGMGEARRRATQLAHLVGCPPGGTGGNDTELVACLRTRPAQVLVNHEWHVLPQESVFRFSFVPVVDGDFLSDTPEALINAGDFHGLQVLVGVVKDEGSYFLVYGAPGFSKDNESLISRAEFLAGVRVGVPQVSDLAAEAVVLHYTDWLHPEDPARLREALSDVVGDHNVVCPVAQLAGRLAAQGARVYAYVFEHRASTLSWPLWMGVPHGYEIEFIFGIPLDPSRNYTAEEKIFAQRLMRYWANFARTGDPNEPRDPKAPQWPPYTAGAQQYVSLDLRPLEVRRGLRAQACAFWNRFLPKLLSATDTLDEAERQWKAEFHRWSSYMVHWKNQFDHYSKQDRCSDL
Histone deacetylase 1, sequence (Q13547 whole entry): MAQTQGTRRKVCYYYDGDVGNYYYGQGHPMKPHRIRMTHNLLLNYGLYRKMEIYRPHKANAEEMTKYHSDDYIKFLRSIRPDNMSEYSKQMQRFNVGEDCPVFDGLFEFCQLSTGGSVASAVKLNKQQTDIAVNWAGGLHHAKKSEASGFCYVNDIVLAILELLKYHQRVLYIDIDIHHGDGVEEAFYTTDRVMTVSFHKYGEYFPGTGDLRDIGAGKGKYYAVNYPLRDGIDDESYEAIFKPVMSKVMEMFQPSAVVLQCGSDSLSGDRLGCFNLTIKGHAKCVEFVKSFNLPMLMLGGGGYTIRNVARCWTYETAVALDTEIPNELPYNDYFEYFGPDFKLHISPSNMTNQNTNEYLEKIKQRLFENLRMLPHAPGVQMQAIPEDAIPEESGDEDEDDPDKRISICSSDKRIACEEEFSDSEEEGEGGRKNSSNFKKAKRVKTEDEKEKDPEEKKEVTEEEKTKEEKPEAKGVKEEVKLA
Histone deacetylase 3, sequence (O15379 whole entry): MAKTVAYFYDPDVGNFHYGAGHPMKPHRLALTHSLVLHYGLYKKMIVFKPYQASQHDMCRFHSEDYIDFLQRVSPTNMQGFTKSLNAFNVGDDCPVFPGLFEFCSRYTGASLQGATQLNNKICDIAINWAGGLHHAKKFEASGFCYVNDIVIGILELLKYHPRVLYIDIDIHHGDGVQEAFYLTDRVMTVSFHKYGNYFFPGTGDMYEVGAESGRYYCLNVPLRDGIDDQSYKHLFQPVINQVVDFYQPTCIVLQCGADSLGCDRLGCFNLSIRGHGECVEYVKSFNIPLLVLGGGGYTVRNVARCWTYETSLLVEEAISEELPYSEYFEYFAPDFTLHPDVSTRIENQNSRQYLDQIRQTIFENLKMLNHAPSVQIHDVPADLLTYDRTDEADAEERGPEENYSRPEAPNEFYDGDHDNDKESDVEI
Histone deacetylase 2, sequence (Q92769 whole entry): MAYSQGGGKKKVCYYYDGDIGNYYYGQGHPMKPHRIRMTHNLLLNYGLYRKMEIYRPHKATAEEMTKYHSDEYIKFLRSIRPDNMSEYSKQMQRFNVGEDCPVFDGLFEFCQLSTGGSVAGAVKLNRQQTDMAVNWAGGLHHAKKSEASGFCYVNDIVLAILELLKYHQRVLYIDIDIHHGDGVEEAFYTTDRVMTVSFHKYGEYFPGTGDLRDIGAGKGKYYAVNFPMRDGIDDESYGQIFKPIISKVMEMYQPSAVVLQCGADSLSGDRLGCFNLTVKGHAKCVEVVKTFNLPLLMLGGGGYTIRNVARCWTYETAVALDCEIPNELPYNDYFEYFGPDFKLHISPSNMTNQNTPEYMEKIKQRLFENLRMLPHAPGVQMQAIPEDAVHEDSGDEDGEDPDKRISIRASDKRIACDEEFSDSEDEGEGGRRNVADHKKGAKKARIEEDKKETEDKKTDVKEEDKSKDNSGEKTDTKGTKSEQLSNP

Q: Which results are given for `O=[N+]([O-])c1cccc(-c2cnc3cccnc3n2)c1`?
A: IC50 (Acetylcholinesterase): 466 nM; IC50 (Cholinesterase): 1890 nM

Q: For `CC(C)(O)CCC[C@](C)(O)C1CC[C@]2(C)[C@@H]1[C@H](O)C[C@@H]1[C@@]3(C)Cc4nccnc4C(C)(C)[C@@H]3CC[C@]12C` (stereo partly drawn), which IC50 (BGC-823) is on record?
A: The IC50 was 11500 nM.

Q: Which IC50 (Acetylcholinesterase) does the source give for `Fc1cccc(-c2cnc3cccnc3n2)c1` here?
A: The IC50 was 800 nM.

Q: What about the IC50 (Cholinesterase) of the same compound?
A: The IC50 was 583 nM.

Q: With `C[C@@H]1[C@@]2(CC[C@](C)(O)CO2)O[C@H]2C=C3[C@@H]4[C@@H](O)C[C@H]5Cc6nc7c(nc6C[C@]5(C)[C@H]4C[C@@H](O)[C@]3(C)[C@]21O)C[C@@H]1CC[C@@H]2[C@H](CC(=O)[C@]23C[C@@H]2O[C@]4(CCC(C)(C)O4)[C@@H](C)[C@@H]2[C@]3(C)O)[C@@]1(C)C7` [RITTERAZINE D] as the compound, how does the EC50 ([1]; time 48 hrs, read-out: ED50 (the source's name)) read?
A: Its EC50 is 0.17 nM.

Q: For `CN(CCCN(C)CCN1C(=O)c2cccc3c(N)c(N)cc(c23)C1=O)CCN1C(=O)c2cccc3c(N)c(N)cc(c23)C1=O`, which IC50 (HT-29) is on record?
A: Its IC50 is 60 nM.

Q: What about the IC50 (HeLa) of the same compound?
A: The IC50 was 90 nM.

Q: What about the IC50 (PC-3 [2]) of the same compound?
A: The IC50 was 180 nM.

Q: For `CCn1nc(C2CCN(C(=O)CCO)CC2)nc1-c1cnc(N)c(-c2nnc(C(C)(C)C)o2)n1` [AZD-8835], which IC50 ([1]; 48 h) is on record?
A: Its IC50 is 930 nM.

Q: For `CCn1c(-c2ccc(OC)cc2)cn2nc(-c3ccc(OC)cc3)cc2c1=O`, which IC50 (A549 [3]) is on record?
A: Its IC50 is 49700 nM.

Q: And the IC50 (H322)?
A: Its IC50 is 50600 nM.

Q: For `Cc1nc(C)c(C)nc1C` [LIGUSTRAZINE], which IC50 (U2OS) is on record?
A: Its IC50 is 54.7 µg/mL (≈ 402 µM).

Q: And the IC50 (MG-63)?
A: Its IC50 is 10.3 µg/mL (≈ 75.6 µM).

Q: What about the IC50 (SAOS-2) of the same compound?
A: The IC50 was 24.7 µg/mL (≈ 181 µM).

Q: Which EC50 (Rhizoctonia solani) does the source give for `CC(OC(=O)c1ccccc1)c1cnccn1` (stereo not drawn) here?
A: Its EC50 is 0.019 µg/mL (≈ 0.0832 µM).

Q: And the EC50 (Phytophthora nicotianae)?
A: Its EC50 is 0.187 µg/mL (≈ 0.819 µM).

Q: For `CC(C)N1C[C@H]2C[C@@H]1CN2c1ccc(Nc2nc(-c3ccc4cn[nH]c4c3)cn3ccnc23)cc1`, which IC50 (ES-2) is on record?
A: The IC50 was 1960 nM.

Q: And the IC50 (Caco-2)?
A: Its IC50 is 7390 nM.

Q: And the IC50 (HEY)?
A: The IC50 was 1010 nM.

Q: What about the IC50 (SW626) of the same compound?
A: The IC50 was 9170 nM.

Q: And the IC50 (NCI-H460)?
A: The IC50 was 1480 nM.

Q: What about the IC50 (OVCAR-5) of the same compound?
A: Its IC50 is 1530 nM.

Q: And the IC50 (NCI-H1299)?
A: The IC50 was 720 nM.

Q: What about the IC50 (SK-OV-3) of the same compound?
A: Its IC50 is 760 nM.

Q: And the IC50 (A549 [4])?
A: The IC50 was 830 nM.

Q: Which IC50 (HCT-116) does the source give for `C[C@@H]1[C@]2(O[C@H]3C=C4[C@@H]5CC[C@H]6Cc7nc8c(nc7C[C@]6(C)[C@H]5C[C@@H](O)[C@]4(C)[C@]31O)C[C@@H]1CC[C@H]3C4=CC5O[C@@]6(CCC(C)(C)O6)[C@@H](C)[C@@H]5[C@@]4(C)[C@H](O)C[C@@H]3[C@@]1(C)C8)O[C@](C)(COC(=O)CNC(=O)Cc1cc(=O)oc3cc(N(C)C)ccc13)C[C@H]2O` (stereo partly drawn) here?
A: The IC50 was 84 nM.

Q: For `Cc1nc(C)c(C(=O)NCCCCCCCCCCCCNOC(=O)c2ccc3cc[nH]c3c2)nc1C`, which IC50 (MDA-MB-231) is on record?
A: The IC50 was 840 nM.

Q: What about the IC50 (MCF7) of the same compound?
A: Its IC50 is 1110 nM.

Q: And the IC50 at 5 days [5]?
A: Its IC50 at 5 days is 3160 nM.

Q: And the IC50 (4T1)?
A: The IC50 was 1160 nM.

Q: And the IC50 (HUVEC)?
A: The IC50 was 3820 nM.

Q: For `Cn1cc(-c2cnc3ccn(S(=O)(=O)c4ccccc4)c3n2)cn1`, which inhibition [6] is on record?
A: The inhibition was 93.3%.

Q: What about the inhibition [7] of the same compound?
A: The inhibition was 92.5%.

Q: What does the source list for `CN(CCCN(C)CCN1C(=O)c2cccc3c2c(cc2nccnc23)C1=O)CCN1C(=O)c2cccc3c2c(cc2nccnc23)C1=O`?
A: IC50 (HT-29): 20 nM; IC50 (HeLa): 80 nM; IC50 (PC-3 [2]): 80 nM

Q: For `CN1CCN(c2cnc(C(=O)Nc3cc(-c4cccs4)ccc3[N+](=O)[O-])cn2)CC1`, which IC50 (Histone deacetylase 1) is on record?
A: The IC50 was 70 nM.

Q: What about the IC50 (Histone deacetylase 2) of the same compound?
A: The IC50 was 260 nM.

Q: What about the IC50 (Histone deacetylase 3) of the same compound?
A: The IC50 was 6100 nM.

Q: Which results are given for `C[C@H](O)[C@@]1(C)CCC2[C@]3(C)CC=C4C(C)(C)c5nc(C(=O)NCCc6ccccc6)cnc5C[C@]4(C)[C@H]3CC[C@@]21C` (stereo partly drawn)?
A: IC50 at 48 h [8]: 26700 nM; Ratio IC50 [9]: 28.71; IC50 (PC-3 [10]): 930 nM

Q: With `CN1C2(CCN(c3ccncc3)CC2)CN2C(=O)CN(S(=O)(=O)c3ccc4cc(Cl)ccc4c3)CC21CO` (stereo not drawn) as the compound, how does the IC50 (Coagulation factor X) read?
A: The IC50 was 0.58 nM.

Q: With `c1cn2cc(-c3ccc4cn[nH]c4c3)nc(Nc3ccc(N4CCOCC4)cc3)c2n1` [ENTOSPLETINIB] as the compound, how does the IC50 (ES-2) read?
A: The IC50 was over 10000 nM.

Q: What about the IC50 (Caco-2) of the same compound?
A: The IC50 was 6860 nM.

Q: And the IC50 (HEY)?
A: The IC50 was over 10000 nM.

Q: And the IC50 (SW626)?
A: The IC50 was over 10000 nM.

Q: And the IC50 (NCI-H460)?
A: The IC50 was over 10000 nM.

Q: And the IC50 (OVCAR-5)?
A: Its IC50 is 8300 nM.

Q: And the IC50 (NCI-H1299)?
A: Its IC50 is 6260 nM.

Q: What about the IC50 (SK-OV-3) of the same compound?
A: The IC50 was over 10000 nM.

Q: And the IC50 (A549 [4])?
A: The IC50 was over 10000 nM.
